Consider five compounds from patent US10800791B2, “Triazole ACC inhibitors and uses thereof” (Gilead Apollo, LLC, priority 2015, dated 2020).

For one test, the system named is Botrtyis cinerea (Bc). Description: Growth inhibition assay of fungal pathogens, Bc. The test is classed as cell-based. The settings on record: 48 h, growth inhibition at 48 hours vs 2% DMSO control. An outline of the steps: (§1)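 Percent inhibition derived at 48 hours from OD600 and visual scores versus 2% DMSO control, with media+DMSO blank as background. Spore inocula in 17% V8 medium were sized from 48 h growth curves; compounds tested at final 50/10/2 or 2/0.4/0.08 ppm.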

The target in the next test is fungal (fACC2) (UniProt Q00955). The settings on record: read-out: fACC2 (in vitro ACC2 Inhibition Assay, IC50); Table 2b, additional results; ADP-Glo, 5 nM ACC2, 20 μM ATP, 20 μM acetyl-CoA. In general terms: In ADP-Glo the light output rises with the ADP produced.
The next test relates to Rhizoctonia solani (Rs). Put plainly: Growth inhibition assay of fungal pathogens, Rs. The class given is cell-based. The settings on record: 48 h.
In test [1] the test system is Phytophthora capsici (Pc). Description: Growth inhibition assay of fungal pathogens, Pc. The test is classed as cell-based. Conditions: 48 h. An outline of the steps: as §1
For the next test, the target named is human (hACC2) (Homo sapiens, UniProt O00763). Put plainly: In vitro ACC inhibition assay (ADP-Glo), hACC2. The class given is biochemical. The settings on record: Table 2b, additional results, 5 nM ACC2, 20 μM ATP, 20 μM acetyl-CoA. Here is the method: The detailed procedure is as follows. […] 10 μL ADP glo reagent was added. […] 20 μL kinase detection reagent was added.

The test system of a further test is C. parapsilosis. Put plainly: Antifungal Activity Assay (broth microtiter MIC), C. parapsilosis. The class given is cell-based, Candida parapsilosis. The settings on record: Lodderomyces parapsilosis, ATCC22019, 48 h. An outline of the steps:
(§2)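 MIC read by eye at 48 h, comparing challenged wells with the growth control. Yeasts grown overnight on Sabouraud dextrose agar at 35° C, suspended in RPMI 1640+MOPS and added at 2.5×10^3 CFU/mL final, following CLSI M27-A3.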

The next test deals with Diplodia maydis (Dm). Description: Growth inhibition assay of fungal pathogens, Dm. The settings on record: Stenocarpella maydis, 48 h, growth inhibition at 48 hours vs 2% DMSO control. The class given is cell-based. The method, boiled down: as §1
A further test relates to C. krusei. Put plainly: Antifungal Activity Assay (broth microtiter MIC), C. krusei. The class given is cell-based, Candida krusei. Conditions: Pichia kudriavzevii, ATCC6258, 48 h. The method, boiled down:
as §2

Test [2] relates to Fusarium virguliforme (Fv). Description: Growth inhibition assay of fungal pathogens, Fv. The settings on record: 48 h. The class given is cell-based. The method, boiled down:
as §1

The subject of a further test is C. albicans. Put plainly: Antifungal Activity Assay (broth microtiter MIC), C. albicans. The test is classed as cell-based, Candida albicans. Conditions: Candida albicans, ATCC90028, 48 h. An outline of the steps:
as §2

For the next test, the system named is Septoria tritici (St). Put plainly: Growth inhibition assay of fungal pathogens, St. The test is classed as cell-based. Conditions: Zymoseptoria tritici, 48 h, growth inhibition at 48 hours vs 2% DMSO control. The method, boiled down:
as §1

The subject of test [3] is Collectotrichum graminicola (Cg). Description: Growth inhibition assay of fungal pathogens, Cg. The test is classed as cell-based. The settings on record: 48 h, growth inhibition at 48 hours vs 2% DMSO control. The method, boiled down: as §1
Test [4] concerns Fusarium moniliforme (Fm). Description: Growth inhibition assay of fungal pathogens, Fm. The test is classed as cell-based. The settings on record: Fusarium verticillioides, 48 h, read-out: Concentration at 90% Inhibition Fm. An outline of the steps:
as §1

The mark [5] stands for this setting: read-out: Concentration at 90% Inhibition Bc, Botrtyis cinerea.
[6] abbreviates: read-out: Concentration at 90% Inhibition Rs, Rhizoctonia solani, mycelial plugs, growth inhibition at 48 hours vs 2% DMSO control.
[7] abbreviates: read-out: Concentration at 90% Inhibition Pc, Phytophthora capsici, growth inhibition at 48 hours vs 2% DMSO control.
The mark [8] stands for this setting: read-out: MIC, C. parapsilosis ATCC 22019, Table 3b (additional results), 3 replicates, MIC recorded at 48 h.
The mark [9] stands for this setting: read-out: Concentration at 90% Inhibition Dm, Diplodia maydis.
Where [10] appears, read: read-out: MIC, C. krusei ATCC 6258, Table 3b (additional results), 3 replicates, MIC recorded at 48 h.
Setting [11] is: read-out: Concentration at 90% Inhibition Fv, Fusarium virguliforme, growth inhibition at 48 hours vs 2% DMSO control.
[12] abbreviates: read-out: MIC, C. albicans ATCC 90028, Table 3b (additional results), 3 replicates, MIC recorded at 48 h.
[13] abbreviates: read-out: Concentration at 90% Inhibition St, Septoria tritici.
Setting [14] is: read-out: Concentration at 90% Inhibition Cg, Collectotrichum graminicola.
The mark [15] stands for this setting: Botrtyis cinerea, read-out: Concentration at 90% Inhibition Bc.
[16] abbreviates: mycelial plugs, growth inhibition at 48 hours vs 2% DMSO control, read-out: Concentration at 90% Inhibition Rs.
Setting [17] is: growth inhibition at 48 hours vs 2% DMSO control, read-out: Concentration at 90% Inhibition Pc.
The mark [18] stands for this setting: Table 3b (additional results), ATCC 22019, 3 replicates, MIC recorded at 48 h, read-out: MIC, C. parapsilosis ATCC 22019.
[19] abbreviates: Diplodia maydis, read-out: Concentration at 90% Inhibition Dm.
[20] abbreviates: Table 3b (additional results), ATCC 6258, 3 replicates, MIC recorded at 48 h, read-out: MIC, C. krusei ATCC 6258.
The mark [21] stands for this setting: growth inhibition at 48 hours vs 2% DMSO control, read-out: Concentration at 90% Inhibition Fv.
[22] abbreviates: Table 3b (additional results), ATCC 90028, 3 replicates, MIC recorded at 48 h, read-out: MIC, C. albicans ATCC 90028.
Setting [23] is: Septoria tritici, read-out: Concentration at 90% Inhibition St.
Setting [24] is: Collectotrichum graminicola, read-out: Concentration at 90% Inhibition Cg.
Setting [25] is: Fusarium moniliforme, growth inhibition at 48 hours vs 2% DMSO control.

Converted amounts (≈) assume the structure as drawn. Where two headings read alike, the source gives them in different places.

fungal (fACC2), sequence (Q00955 whole entry): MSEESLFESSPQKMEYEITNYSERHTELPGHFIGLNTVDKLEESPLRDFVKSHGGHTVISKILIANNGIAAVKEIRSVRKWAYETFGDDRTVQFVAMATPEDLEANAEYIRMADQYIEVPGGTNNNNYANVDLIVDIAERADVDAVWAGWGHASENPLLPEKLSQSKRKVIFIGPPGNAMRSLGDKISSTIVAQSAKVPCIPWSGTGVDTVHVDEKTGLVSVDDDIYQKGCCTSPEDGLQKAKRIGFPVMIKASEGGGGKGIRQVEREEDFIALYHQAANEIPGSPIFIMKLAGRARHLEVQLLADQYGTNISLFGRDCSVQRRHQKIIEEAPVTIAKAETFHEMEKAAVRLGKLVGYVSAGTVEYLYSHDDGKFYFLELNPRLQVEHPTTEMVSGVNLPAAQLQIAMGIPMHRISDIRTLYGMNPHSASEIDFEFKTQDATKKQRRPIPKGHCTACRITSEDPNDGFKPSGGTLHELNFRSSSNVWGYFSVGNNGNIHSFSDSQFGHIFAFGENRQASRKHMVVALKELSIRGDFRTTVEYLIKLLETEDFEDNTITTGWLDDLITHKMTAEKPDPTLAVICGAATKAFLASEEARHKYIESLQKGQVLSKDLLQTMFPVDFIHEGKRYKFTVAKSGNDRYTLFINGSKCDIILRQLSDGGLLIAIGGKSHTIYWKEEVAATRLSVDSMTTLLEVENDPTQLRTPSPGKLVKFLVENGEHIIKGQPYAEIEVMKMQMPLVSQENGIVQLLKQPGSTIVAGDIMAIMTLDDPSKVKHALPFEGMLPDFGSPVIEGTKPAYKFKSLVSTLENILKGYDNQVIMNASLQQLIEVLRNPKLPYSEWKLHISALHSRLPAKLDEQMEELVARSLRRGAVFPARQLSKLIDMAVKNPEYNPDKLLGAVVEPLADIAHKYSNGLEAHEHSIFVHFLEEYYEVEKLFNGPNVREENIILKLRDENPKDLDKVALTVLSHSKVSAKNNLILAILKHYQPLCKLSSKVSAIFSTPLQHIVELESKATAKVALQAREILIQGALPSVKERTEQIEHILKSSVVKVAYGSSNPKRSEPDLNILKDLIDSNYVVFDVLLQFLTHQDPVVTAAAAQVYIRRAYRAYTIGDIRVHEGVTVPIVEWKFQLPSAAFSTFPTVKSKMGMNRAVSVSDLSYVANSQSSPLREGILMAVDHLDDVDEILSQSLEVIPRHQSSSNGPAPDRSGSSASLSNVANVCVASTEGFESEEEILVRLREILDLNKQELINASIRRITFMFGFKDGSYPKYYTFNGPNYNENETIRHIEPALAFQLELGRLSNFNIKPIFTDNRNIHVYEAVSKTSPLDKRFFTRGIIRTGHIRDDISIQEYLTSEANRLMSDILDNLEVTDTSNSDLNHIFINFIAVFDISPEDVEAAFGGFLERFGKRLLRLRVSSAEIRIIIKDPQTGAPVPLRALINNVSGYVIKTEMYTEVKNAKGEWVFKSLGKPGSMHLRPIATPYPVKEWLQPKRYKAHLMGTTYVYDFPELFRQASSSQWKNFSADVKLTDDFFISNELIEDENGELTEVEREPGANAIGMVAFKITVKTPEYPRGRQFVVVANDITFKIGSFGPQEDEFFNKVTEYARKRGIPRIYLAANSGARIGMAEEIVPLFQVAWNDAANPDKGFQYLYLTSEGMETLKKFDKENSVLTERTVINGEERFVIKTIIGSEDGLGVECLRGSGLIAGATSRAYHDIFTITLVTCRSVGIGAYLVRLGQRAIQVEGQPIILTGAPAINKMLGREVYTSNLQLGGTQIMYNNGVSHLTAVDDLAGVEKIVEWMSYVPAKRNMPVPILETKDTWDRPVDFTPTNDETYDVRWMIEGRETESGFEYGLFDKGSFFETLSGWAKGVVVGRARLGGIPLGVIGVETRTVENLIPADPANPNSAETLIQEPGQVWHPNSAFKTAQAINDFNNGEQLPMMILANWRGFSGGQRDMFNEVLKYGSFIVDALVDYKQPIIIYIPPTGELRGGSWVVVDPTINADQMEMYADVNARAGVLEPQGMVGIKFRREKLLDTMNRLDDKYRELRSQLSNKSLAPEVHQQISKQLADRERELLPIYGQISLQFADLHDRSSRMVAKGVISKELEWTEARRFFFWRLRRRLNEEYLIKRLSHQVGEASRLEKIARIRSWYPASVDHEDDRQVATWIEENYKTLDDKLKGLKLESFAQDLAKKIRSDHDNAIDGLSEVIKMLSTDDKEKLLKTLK
human (hACC2), sequence (O00763 whole entry): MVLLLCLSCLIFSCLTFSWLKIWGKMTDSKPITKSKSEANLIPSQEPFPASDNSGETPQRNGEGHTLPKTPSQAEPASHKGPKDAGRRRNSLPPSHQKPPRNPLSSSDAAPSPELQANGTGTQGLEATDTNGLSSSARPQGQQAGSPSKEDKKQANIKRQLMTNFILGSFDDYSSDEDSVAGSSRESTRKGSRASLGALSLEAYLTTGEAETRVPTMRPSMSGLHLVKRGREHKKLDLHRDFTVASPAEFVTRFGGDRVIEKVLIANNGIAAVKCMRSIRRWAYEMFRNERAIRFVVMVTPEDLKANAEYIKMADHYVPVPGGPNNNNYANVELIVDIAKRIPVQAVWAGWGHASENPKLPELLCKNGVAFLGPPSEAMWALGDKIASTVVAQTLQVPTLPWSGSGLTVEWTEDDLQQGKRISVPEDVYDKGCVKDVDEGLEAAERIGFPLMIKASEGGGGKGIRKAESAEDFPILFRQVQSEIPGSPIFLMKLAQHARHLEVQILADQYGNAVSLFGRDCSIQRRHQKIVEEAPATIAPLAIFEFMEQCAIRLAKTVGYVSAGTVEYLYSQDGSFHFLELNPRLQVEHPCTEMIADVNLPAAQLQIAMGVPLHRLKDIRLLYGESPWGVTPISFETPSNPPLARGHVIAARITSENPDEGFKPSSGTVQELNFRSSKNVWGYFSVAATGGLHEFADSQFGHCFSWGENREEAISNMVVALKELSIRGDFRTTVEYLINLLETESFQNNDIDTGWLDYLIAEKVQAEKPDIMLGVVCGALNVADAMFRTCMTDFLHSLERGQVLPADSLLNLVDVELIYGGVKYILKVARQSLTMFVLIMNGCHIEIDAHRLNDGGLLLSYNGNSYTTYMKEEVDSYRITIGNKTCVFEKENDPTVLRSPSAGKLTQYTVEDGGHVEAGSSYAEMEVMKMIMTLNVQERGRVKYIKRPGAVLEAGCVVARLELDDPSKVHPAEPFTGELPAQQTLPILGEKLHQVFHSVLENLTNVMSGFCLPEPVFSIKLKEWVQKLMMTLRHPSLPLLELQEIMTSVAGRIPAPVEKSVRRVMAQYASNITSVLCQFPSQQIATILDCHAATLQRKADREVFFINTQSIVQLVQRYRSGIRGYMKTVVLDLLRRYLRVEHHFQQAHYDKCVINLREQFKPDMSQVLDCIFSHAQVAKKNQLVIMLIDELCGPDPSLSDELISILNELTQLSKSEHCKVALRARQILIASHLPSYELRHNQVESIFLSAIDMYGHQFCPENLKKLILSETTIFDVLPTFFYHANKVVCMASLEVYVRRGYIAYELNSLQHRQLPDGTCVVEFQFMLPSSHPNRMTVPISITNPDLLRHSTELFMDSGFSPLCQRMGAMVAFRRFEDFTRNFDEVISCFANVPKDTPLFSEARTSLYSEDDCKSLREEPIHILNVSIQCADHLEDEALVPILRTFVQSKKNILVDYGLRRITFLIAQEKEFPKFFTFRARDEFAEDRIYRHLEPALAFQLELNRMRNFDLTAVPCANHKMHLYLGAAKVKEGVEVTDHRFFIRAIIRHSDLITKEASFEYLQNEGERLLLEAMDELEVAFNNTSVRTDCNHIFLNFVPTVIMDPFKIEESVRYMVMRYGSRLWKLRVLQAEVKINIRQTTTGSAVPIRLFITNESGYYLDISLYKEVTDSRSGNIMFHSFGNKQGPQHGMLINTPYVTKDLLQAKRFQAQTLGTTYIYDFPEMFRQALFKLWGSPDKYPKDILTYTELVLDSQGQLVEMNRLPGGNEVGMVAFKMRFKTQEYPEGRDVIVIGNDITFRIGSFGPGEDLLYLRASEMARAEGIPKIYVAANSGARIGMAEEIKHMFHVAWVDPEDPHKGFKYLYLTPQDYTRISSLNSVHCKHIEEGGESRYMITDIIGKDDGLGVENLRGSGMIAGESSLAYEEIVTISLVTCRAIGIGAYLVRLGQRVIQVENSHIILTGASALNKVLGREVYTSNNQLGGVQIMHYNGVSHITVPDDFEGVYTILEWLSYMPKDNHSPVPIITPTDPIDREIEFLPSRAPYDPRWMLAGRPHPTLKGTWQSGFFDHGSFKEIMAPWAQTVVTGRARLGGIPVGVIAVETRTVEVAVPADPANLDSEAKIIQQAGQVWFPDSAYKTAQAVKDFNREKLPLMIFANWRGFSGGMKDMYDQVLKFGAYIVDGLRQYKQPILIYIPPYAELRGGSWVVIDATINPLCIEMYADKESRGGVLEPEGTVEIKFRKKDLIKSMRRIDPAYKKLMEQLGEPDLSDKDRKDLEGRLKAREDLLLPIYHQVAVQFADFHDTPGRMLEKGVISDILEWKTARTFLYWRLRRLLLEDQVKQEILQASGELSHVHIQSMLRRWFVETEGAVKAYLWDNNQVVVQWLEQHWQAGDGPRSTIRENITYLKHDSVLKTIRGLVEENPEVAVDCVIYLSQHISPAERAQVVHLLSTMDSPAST

In general, IC50 refers to the concentration that gives 50% inhibition. For orientation: MIC means the least concentration at which growth counts as inhibited. Regarding `COc1ccc(F)cc1[C@H](Cn1c(=O)n(C(C)(C)C(=O)NC(C)C)c(=O)c2c(C)c(-n3nccn3)sc21)OCCS(C)(=O)=O` [Compound I-248], the IC90 with Botrtyis cinerea (Bc) (setting [5]) was 2 µg/mL (≈ 3.07 µM); in the test with Rhizoctonia solani (Rs) (setting [6]) it was 0.08 µg/mL (≈ 0.123 µM); in [1] (setting [7]) it was 10 µg/mL (≈ 15.4 µM); in the test on Diplodia maydis (Dm) (setting [9]), 0.4 µg/mL (≈ 0.615 µM); in test [2] (setting [11]), 2 µg/mL (≈ 3.07 µM); in the test with Septoria tritici (St) (setting [13]), above 50 µg/mL. Besides, the IC90 in [3] (setting [14]) and in test [4] was 0.4 µg/mL (≈ 0.615 µM) in each case. Further, the values for the IC50 at fungal (fACC2) and at human (hACC2) were 0.3 to 1 nM and 10 to 40 nM, respectively. The MIC with C. parapsilosis (setting [8]), with C. krusei (setting [10]) and in the test with C. albicans (setting [12]) was 1.01 to 2 µg/mL (≈ 1.55 to 3.07 µM) each time.

In the case of `COc1ccccc1[C@H](O)Cn1c(=O)n(C(C)(C)C(=O)NC(C)C)c(=O)c2c(C)c(-n3nccn3)sc21` [Compound I-251], the IC90 was 10 µg/mL (≈ 19 µM) in the test with Botrtyis cinerea (Bc) (setting [5]); 2 µg/mL (≈ 3.8 µM) with Rhizoctonia solani (Rs) (setting [6]); above 50 µg/mL in test [1] (setting [7]); above 50 µg/mL with Diplodia maydis (Dm) (setting [9]); 2 µg/mL (≈ 3.8 µM) in [2] (setting [11]); above 50 µg/mL with Septoria tritici (St) (setting [13]). Also, the IC90 in [3] (setting [14]) was above 50 µg/mL; in [4], 2 µg/mL (≈ 3.8 µM). The IC50 on fungal (fACC2) fell in the range of 1 to 5 nM; at human (hACC2) it was 10 to 40 nM. In addition, the MIC with C. parapsilosis (setting [8]) lay within 0.25 to 1 µg/mL (≈ 0.475 to 1.9 µM); in the test on C. krusei (setting [10]), 0.25 to 1 µg/mL (≈ 0.475 to 1.9 µM); in the test on C. albicans (setting [12]), 1.01 to 2 µg/mL (≈ 1.92 to 3.8 µM).

As to `CCNC(=O)[C@@H](C)n1c(=O)c2c(C)c(-n3nccn3)sc2n(C[C@H](OCCC#N)c2cc(F)ccc2OC)c1=O` [Compound I-252], the IC90 is 2 µg/mL (≈ 3.51 µM) in the test on Botrtyis cinerea (Bc) (setting [15]); 0.08 µg/mL (≈ 0.14 µM) in the test with Rhizoctonia solani (Rs) (setting [16]); 10 µg/mL (≈ 17.6 µM) in test [1] (setting [17]); 0.4 µg/mL (≈ 0.702 µM) in the test on Diplodia maydis (Dm) (setting [19]); 0.4 µg/mL (≈ 0.702 µM) in [2] (setting [21]); above 50 µg/mL with Septoria tritici (St) (setting [23]). The IC90 in test [3] (setting [24]) and in [4] (setting [25]) was 0.08 µg/mL (≈ 0.14 µM) throughout. In addition, the IC50 on fungal (fACC2) and at human (hACC2) was 1 to 5 nM throughout. Moreover, the MIC with C. parapsilosis (setting [18]) was 2.01 to 4 µg/mL (≈ 3.53 to 7.02 µM); in the test on C. krusei (setting [20]), above 4.01 µg/mL; in the test with C. albicans (setting [22]), above 4.01 µg/mL.

As for `CCNC(=O)[C@H](C)n1c(=O)c2c(C)c(-n3nccn3)sc2n(C[C@H](OCCC#N)c2cc(F)ccc2OC)c1=O` [Compound I-253], the IC90 with Botrtyis cinerea (Bc) (setting [15]) was 2 µg/mL (≈ 3.51 µM); in the test on Rhizoctonia solani (Rs) (setting [16]) it was 2 µg/mL (≈ 3.51 µM); in test [1] (setting [17]), above 50 µg/mL; in the test with Diplodia maydis (Dm) (setting [19]) it was 10 µg/mL (≈ 17.6 µM); in [2] (setting [21]), 10 µg/mL (≈ 17.6 µM); in the test on Septoria tritici (St) (setting [23]), above 50 µg/mL. Further, the figures for the IC90 in [3] (setting [24]) and in [4] (setting [25]) were 10 µg/mL (≈ 17.6 µM) and 0.4 µg/mL (≈ 0.702 µM), respectively. Further, the IC50 on fungal (fACC2) was 0.3 to 1 nM; on human (hACC2), 5 to 10 nM. The MIC in the test with C. parapsilosis (setting [18]) was 2.01 to 4 µg/mL (≈ 3.53 to 7.02 µM); in the test with C. krusei (setting [20]), above 4.01 µg/mL; in the test on C. albicans (setting [22]), above 4.01 µg/mL.

In the case of `CCNC(=O)C(C)(C)n1c(=O)c2c(C)c(-n3nccn3)sc2n(C[C@@H](O)c2cc(F)ccc2OC)c1=O` [Compound I-254], the IC90 in the test on Botrtyis cinerea (Bc) (setting [15]) is above 50 µg/mL; in the test with Rhizoctonia solani (Rs) (setting [16]), 2 µg/mL (≈ 3.77 µM); in test [1] (setting [17]) it was above 50 µg/mL; in the test on Diplodia maydis (Dm) (setting [19]), above 50 µg/mL; in test [2] (setting [21]), above 50 µg/mL; in the test with Septoria tritici (St) (setting [23]), above 50 µg/mL. For the same compound, the IC90 in test [3] (setting [24]) is above 50 µg/mL; in test [4] (setting [25]) it was 10 µg/mL (≈ 18.8 µM). Besides, the IC50 on fungal (fACC2) was 1 to 5 nM; at human (hACC2), above 40 nM. Besides, the MIC with C. parapsilosis (setting [18]), in the test with C. krusei (setting [20]) and in the test with C. albicans (setting [22]) was 2.01 to 4 µg/mL (≈ 3.79 to 7.54 µM) in each case.
